Entries after “also recorded” stand apart in the source; their conditions may differ. Starred links: 1 amine or outer side, 2 acyl side, 3 side chain; linkers in the order of their positions; H or OH if unused. Positions of bridges follow the written chain, without caps; N, C: chain ends. Residues, ends and D or L forms follow the SMILES beside them. X1 = O=C(CC1(S[*:2])CCCCC1)[*:1]
How the values were obtained:
[1] = tested on: Avpr1a−/− mutants (AVPR1a KO); test: Intra-amygdala AVP injection, food intake in Avpr1a-/- mutants; format: in vivo, mice; settings: 0.03 ng AVP intra-amygdala vs. saline
Protocol: (§1) In this example, it was tested whether the anorexic effect of AVP can also be achieved by intra-amygdala injections. The amygdala is a long structure extending from −0.58 mm to −2.5 mm to Bregma. To select the stereotaxic coordinates for the injections, qPCR for Avpr1a on serial 200 μm vibratome sections was performed across the entire amygdala. A peak of expression at −1.4 mm was observed. Unilateral injections of 0.03 ng AVP (vs. saline, in a random crossover design) were made into the amygdala of wild-type mice at this position (dorso-ventral −4.5 mm, lateral −2.4 mm (right side) and rostro-caudal −1.4 mm) (see FIG. 13A).
Since AVP can also bind to AVPR1b and OxtR, the intra-amygdala injections were repeated in Avpr1a−/− mutants (AVPR1a KO) as described above for the wild-type mice.

wild-type mice [2] = test: Intra-amygdala AVP injection, food intake in wild-type mice; format: in vivo; settings: 0.03 ng AVP unilateral intra-amygdala vs. saline
Protocol: as §1

[3] = tested on: wild-type C57BL6/J females; test: Block of the impact of central injection of AVP (3 ng i.c.v.) on food intake after an overnight fast; format: in vivo, mice; settings: fasted wild-type females; for reversal of AVP-induced hypophagia (1 hour food intake): peripheral injection, Compound 1 7 μg/kg, SR49059 2 mg/kg, AVP 3 ng i.c.v.
Protocol: First, it was confirmed that the antagonist compounds act as predicted by assessing their ability to block the impact of central injection of AVP (3 ng i.c.v.) on food intake after an overnight fast in wild-type C57BL6/J females.

wild-type mice [4] = test: Food intake after an overnight fast in wild-type mice injected with Compound 1; format: in vivo; settings: wild-type mice at 7-8 weeks of age, versus saline
Protocol: It was also investigated whether Compound 1 acts as a generic appetite stimulant. To test this idea, the impact of injecting Compound 1 after an overnight fast in wild-type mice at 7-8 weeks of age (FIG. 11, diamond data points) was tested.

GED mice = test: Food intake of GED mice during an aphagic episode after i.p. injection of an AVPR1A antagonist; format: in vivo; settings: for food intake versus saline-injected GED mice, 1 hour after treatment: Compound 1 7 μg/kg, SR49059 2 mg/kg
Protocol: In the morning of the first day of an aphagic episode (≧18 hr of aphagia), GED mice were injected i.p. with 7 μg/kg Compound 1 (Sigma) vs. saline.
To determine the extent to which treatment with Compound 1 rescued the normal drive to re-feed after overnight fast, food intake in a group of saline-injected GED mice that were eating normally were also measured, and were then subjected to an investigator-initiated overnight fast (a condition when AVPR1A should not be elevated in the amygdala) (triangle data points, FIG. 11).
Next, the possibility that AVPR1A antagonists could be used to restore feeding behavior in GED mice during an acute aphagic episode was explored. It was studied whether peripheral injection of Compound 1 and SR49059 can reverse anorexigenic behavior in the GED mouse model. To this end, the impact of i.p. injections of […] of Compound 1 vs. 2 mg/kg SR49059 vs. saline in the morning of the first day of an aphagic episode (≧18 h of aphagia) was assessed.
Mice were given ad libitum access to food immediately after the injection and food intake was measured after 1 hour and 2 hours.

[5] = GED mice during aphagic episode, i.p., 1 hour

Row | Compound | effect of intra-amygdala AVP on food intake, Avpr1a−/− mutants [1] | effect of intra-amygdala AVP on food intake, wild-type mice (wild-type mice [2]) | effect of central injection of AVP on food intake ([3]; 3 ng AVP i.c.v. vs. saline) | food intake in wild-type animals after an overnight fast (wild-type mice [4]) | rescue of food intake at 1 hour relative to normally eating GED mice after overnight fast (GED mice; 7 μg/kg dose, 1 hour) | rescue of food intake at 2 hours relative to normally eating GED mice after overnight fast (GED mice; 7 μg/kg dose, 2 hour) | food intake versus saline-injected GED mice, 2 hours after treatment (GED mice; GED mice during aphagic episode, i.p., 2 hours) | food intake versus saline-injected GED mice, 1 hour after treatment (GED mice; [5]) | reversal of AVP-induced hypophagia (1 hour food intake) [3] | reversal of AVP-induced hypophagia (1 hour food intake) ([3]; 2 mg/kg)
1 | NC(=O)CC[C@@H]1NC(=O)[C@H](Cc2ccccc2)NC(=O)[C@H](Cc2ccc(O)cc2)NC(=O)[C@@H](N)CSSC[C@@H](C(=O)N2CCC[C@H]2C(=O)N[C@@H](CCCN=C(N)N)C(=O)NCC(N)=O)NC(=O)[C@H](CC(N)=O)NC1=O [AVP, arginine vasopressin] | did not affect food intake; also recorded: anorexic effect is not observed | food intake was reduced | hypophagia | – | – | – | – | – | – | –
2 | COc1ccc(CC2NC(=O)CC3(CCCCC3)SSCC(C(=O)N3CCCC3C(=O)NC(CCCN=C(N)N)C(=O)NCC(N)=O)NC(=O)C(CC(N)=O)NC(=O)C(CCC(N)=O)NC(=O)C(Cc3ccccc3)NC2=O)cc1 (stereo not drawn) [Compound 1, 1-(beta-mercapto-betabeta-cycopentamethylenepropionic acid)-2-(O-methyl-Tyr)-argipressin] (Y(Me)FQNCPRG-NH2; linker N-5 via X1; configuration not given here) | – | – | – | did not impact food intake | partial rescue | nearly normalized | consumed significantly more food | consumed significantly more food | can restore 1 hour food intake; also recorded: able to reverse hypophagia | –
3 | COc1ccc(S(=O)(=O)N2c3ccc(Cl)cc3[C@](O)(c3ccccc3Cl)[C@@H]2C(=O)N2CCC[C@H]2C(N)=O)cc1OC [SR49059] | – | – | – | – | – | – | – | did not enhance food intake | – | did not significantly reverse AVP-induced hypophagia; also recorded: did not have that effect

Reference: patent US20180085423A1, “METHODS FOR TREATING AND DIAGNOSING EATING DISORDERS” (THE TRUSTEES OF COLUMBIA UNIVERSITY IN THE CITY OF NEW YORK, priority 2015, published 2018)
